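Results reflect a 48-hour exposure of cells in 96-well plates to compound at five concentrations. GI50 = concentration required for 50% inhibition of growth.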 Activity calls are given as the source filed them. Rule as the data show it: active = GI50 up to about 1.1 µM and inactive = higher.
Experiments:
Assay in all cases: growth of human tumour cells (NCI), 48 h
[1] = test system: HL-60
[2] = test system: MDA-N
[3] = test system: IGROV-1
[4] = test system: SW-620
[5] = test system: NCI-H522
[6] = test system: COLO 205
[7] = test system: SNB-75
[8] = test system: MDA-MB-231
[9] = test system: K562
[10] = test system: SF-295
[11] = test system: SF-268
[12] = test system: PC-3
[13] = test system: CAKI-1
[14] = test system: MCF7
[15] = test system: T47D
[16] = test system: SR
[17] = test system: UO-31
[18] = test system: BT-549
[19] = test system: SNB-19
[20] = test system: U-251

Compound | GI50 [1] | GI50 [2] | GI50 [3] | GI50 [4] | GI50 [5] | GI50 [6] | GI50 [7] | GI50 [8] | GI50 [9] | GI50 [10] | GI50 [11] | GI50 [12] | GI50 [13] | GI50 [14] | GI50 [15] | GI50 [16] | GI50 [17] | GI50 [18] | GI50 [19] | GI50 [20]
Cc1nc2cc(Cl)c(N)cc2[nH]1 | > 100 µM (inactive) | > 100 µM (inactive) | > 100 µM (inactive) | > 100 µM (inactive) | > 100 µM (inactive) | > 100 µM (inactive) | > 100 µM (inactive) | > 100 µM (inactive) | > 100 µM (inactive) | > 100 µM (inactive) | > 100 µM (inactive) | > 100 µM (inactive) | > 100 µM (inactive) | > 100 µM (inactive) | > 100 µM (inactive) | > 100 µM (inactive) | > 100 µM (inactive) | > 100 µM (inactive) | > 100 µM (inactive) | > 100 µM (inactive)
O=C(O)CSc1ccn(Cc2ccccc2)c1 | > 100 µM (inactive) | > 100 µM (inactive) | > 100 µM (inactive) | > 100 µM (inactive) | > 100 µM (inactive) | > 100 µM (inactive) | > 100 µM (inactive) | > 100 µM (inactive) | > 100 µM (inactive) | > 100 µM (inactive) | > 100 µM (inactive) | > 100 µM (inactive) | > 100 µM (inactive) | > 100 µM (inactive) | > 100 µM (inactive) | > 100 µM (inactive) | > 100 µM (inactive) | > 100 µM (inactive) | > 100 µM (inactive) | > 100 µM (inactive)
COC(=O)CN1c2nc(C#N)c(C#N)nc2N(CC(=O)OC)c2nc(C#N)c(C#N)nc21 | 2.26 µM (inactive) | 3.53 µM (inactive) | 3.46 µM (inactive) | 1.76 µM (inactive) | 0.863 µM (active) | 1.26 µM (inactive) | 14 µM (inactive) | 6.73 µM (inactive) | 1.51 µM (inactive) | 19.5 µM (inactive) | 4.05 µM (inactive) | 4.15 µM (inactive) | 0.54 µM (active) | 3.13 µM (inactive) | 2.35 µM (inactive) | 2 µM (inactive) | 1.69 µM (inactive) | 4.78 µM (inactive) | 12 µM (inactive) | 6.81 µM (inactive)
N=C1N=C(N)c2cc3c(cc21)SCCSCCCSCCS3 | 3.77 µM (inactive) | 15 µM (inactive) | 17.2 µM (inactive) | 11.6 µM (inactive) | 2.8 µM (inactive) | 12 µM (inactive) | 14.8 µM (inactive) | 16 µM (inactive) | 4.71 µM (inactive) | 13.9 µM (inactive) | 12.8 µM (inactive) | 15.1 µM (inactive) | 42.4 µM (inactive) | 27 µM (inactive) | 24.8 µM (inactive) | 11.1 µM (inactive) | 49.9 µM (inactive) | 14.1 µM (inactive) | 15.5 µM (inactive) | 15.1 µM (inactive)
N#CCCN(CCC#N)c1ccc(/C=N\c2ccc(F)cc2)cc1 | 6.46 µM (inactive) | 71.3 µM (inactive) | 45.6 µM (inactive) | 19.3 µM (inactive) | > 100 µM (inactive) | 14 µM (inactive) | 73.6 µM (inactive) | > 100 µM (inactive) | 0.137 µM (active) | 12.3 µM (inactive) | 35.2 µM (inactive) | 75.3 µM (inactive) | > 68.5 µM (inactive) | > 100 µM (inactive) | > 100 µM (inactive) | 58.9 µM (inactive) | 41.8 µM (inactive) | > 100 µM (inactive) | > 100 µM (inactive) | > 100 µM (inactive)
NC(=O)C1CCCN1C(=O)N(CCCl)N=O (stereo not given) | > 100 µM (inactive) | > 100 µM (inactive) | > 100 µM (inactive) | > 100 µM (inactive) | > 100 µM (inactive) | > 100 µM (inactive) | 14.9 µM (inactive) | > 100 µM (inactive) | > 100 µM (inactive) | > 100 µM (inactive) | 74.1 µM (inactive) | > 100 µM (inactive) | > 100 µM (inactive) | > 100 µM (inactive) | > 100 µM (inactive) | > 100 µM (inactive) | > 100 µM (inactive) | > 100 µM (inactive) | > 100 µM (inactive) | > 100 µM (inactive)
S=C(Nc1ccccn1)Nc1ccccc1Cl | > 80.7 µM (inactive) | > 100 µM (inactive) | > 36.1 µM (inactive) | > 80.5 µM (inactive) | 14.7 µM (inactive) | > 100 µM (inactive) | > 38.5 µM (inactive) | 61.9 µM (inactive) | > 100 µM (inactive) | > 64.9 µM (inactive) | > 43.8 µM (inactive) | > 84.5 µM (inactive) | > 52.4 µM (inactive) | 5.98 µM (inactive) | 67.8 µM (inactive) | 73.6 µM (inactive) | > 100 µM (inactive) | 52.8 µM (inactive) | 27 µM (inactive) | 48.6 µM (inactive)
